What all share (format): cell-based
Assay [1] concerns Pseudomonas aeruginosa ATCC 27853. Briefly: MIC, serial broth microdilution, P. aeruginosa. To be noted: 24 h, 37 °C. The method, then: (§1) The values of MIC, defined as the lowest concentration of antimicrobial complex that prevents visible growth of germs, are presented in Table S4 in the Supplementary Material. To quantify the copper complexes effectiveness as antibacterial agents, their minimum inhibitory concentrations (MICs) were determined using the serial broth microdilution method described by Quinn et al. and Markey et al.. The method was adapted for the purposes of the current study, according to the standards developed by the Clinical and Laboratory Standards Institute. The tests were performed on the same Gram-positive and Gram-negative reference microbial strains. Ten successive dilutions of the copper complexes solutions (1/2 to 1/1024) in nutrient broth (Merck KGaA, Darmstadt, Germany) were performed and then were placed in sterile microplates (one each for every copper complex). The microplates were incubated at 37 ± 2 °C for 24 h. Comparisons of the amount of bacterial growth in each well containing copper complexes solutions with the amount of growth in the growth control wells were performed and the maximal dilution for which the tested copper complexes inhibited bacterial growth was determined.

Assay [2] concerns Bacillus cerreus ATCC 14579. As to the kind of experiment: Disk diffusion method, B. cerreus. To be noted: complexes 5 µL of 1 mg/mL; 25 µg Amoxicillin, 5 µg Norfloxacin; 24 h, 37 °C. The source says:
The disk diffusion method was used to determine the antibacterial activity of the C1 and C2 copper complexes on four reference microbial strains, two Gram-positive (Staphylococcus aureus and Bacillus cerreus) and two Gram-negative (Escherichia coli and Pseudomonas aeruginosa) strains. The disk diffusion method was used to determine the antibacterial activity of the C1 and C2 copper complexes. The method was adapted for the purposes of the current study, according to the standards developed by the Clinical and Laboratory Standards Institute. Four reference microbial strains, two Gram-positive (Staphylococcus aureus ATCC […] and Bacillus cerreus ATCC 14579) and two Gram-negative (Escherichia coli ATCC 10536 and Pseudomonas aeruginosa ATCC 27853) strains, were used for in vitro susceptibility testing. These reference microbial strains were obtained from the American Type Culture Collection (ATCC, Manassas, VA, USA). As positive controls, Amoxicillin (Oxoid Ltd., Basingstoke, UK) and Norfloxacin (Sigma-Aldrich) were used. For each of the four species, an initial suspension of bacterial cultures was inoculated on nutrient agar plates (Merck KGaA, Darmstadt, Germany), incubated for 24 h at 37 ± 2 °C and resuspended in a physiological saline buffer to a […] concentration (on a 0.5 McFarland scale), and further inoculated on Muëller Hinton agar plates (Merck KGaA, Darmstadt, Germany). […] After inoculation, the medium surface was dried and 8 wells were radially drilled 1.5 cm from the outer edge, 3 cm apart. From aliquot samples of 1 mg/mL of each copper complex dissolved in DMSO and incorporated in sterile liquid medium, 5 μL was placed in each of the 8 wells and left for 30 min to diffuse into the agar plates. The plates were then incubated for 24 h at 37 ± 2 °C. Then, 25 μg Amoxicillin and 5 μg Norfloxacin served as a positive controls, while DMSO 0.75% was used as a negative control. Readings were conducted by measuring the diameter of the inhibition zone (Halo Zone Test, in mm). The germ sensitivity of the copper complexes was estimated by comparing the diameter of the inhibition area to that generated by the regular antibiotics with known inhibition values. […] All tests were triplicated, and the measured diameters of the inhibition zone were expressed (in mm) as mean ± standard deviation.

Assay [3] has as its system Escherichia coli ATCC 10536. As to the kind of experiment: MIC, serial broth microdilution, E. coli. To be noted: 24 h, 37 °C. The method, then:
as §1
For orientation: Broth dilution looks for growth in wells or tubes with falling amounts of substance.

The subject of assay [4] is Staphylococcus aureus ATCC 6538P. Briefly: MIC, serial broth microdilution, S. aureus. Conditions: 24 h, 37 °C. The method, then: as §1
Assay [5] concerns normal fibroblastic epithelial cell line (HFL1). As to the kind of experiment: MTT cytotoxicity assay, HFL1. Conditions: HFL1 cells. As for the experimental part: Three cell lines were used to determine the cytotoxicity of the complexes, a human cervical carcinoma line (HeLa), a human radical growth phase melanoma cell line (WM35), and a normal fibroblastic epithelial cell line (HFL1) using the MTT method. The cells were exposed to C1 and C2 complexes in different concentrations (50, 25, 12.5, 2, and 0.2 µM) at 24, 48, and 72 h. As positive contro, cisplatin was used.
To determine the cytotoxicity of the copper complexes, three cell lines were used: a human cervical carcinoma line (HeLa), a human radical growth phase melanoma cell line (WM35), and a normal fibroblastic epithelial cell line (HFL1). The cell lines were obtained from ATCC (American Type Cell Collection, Manassas, VA 20110-2209, USA) and were maintained in DMEM (Sigma-Aldrich, Saint Louis, Missouri, USA) supplemented with 10% fetal bovine serum (Hyclone), 1 mM glutamine (Sigma-Aldrich), and 1% antibiotic antimycotic 100× (Sigma-Aldrich). The cells were cultured at 37 °C in an atmosphere of 5% CO2 and 95% relative humidity.
The cytotoxicity assays were performed using the MTT assay (3-(4,5-dimethylthiazol-2-yl)-2,5-diphenyl tetrazolium bromide-Sigma Aldrich). Cells were plated at a density of 1 × 10^5 cells/well in 96-well plates for 24 h in normal propagation media. The cultures were then exposed to C1 and C2 complexes in different concentrations (50, 25, 12.5, 2, and 0.2 µM). The complexes were first solubilized in DMSO (Sigma) and then serial dilutions in media were performed until the final concentration of DMSO was less than 1%. As a positive control, cisplatin (Ebewe Pharma Ges.m.b.H. Nfg. KG, Austria) was used, in the same concentrations as the complexes. As a negative control, cell lines cultivated in normal expansion medium with the same amount of DMSO added were used. The cellular viability was determined using the MTT assay at 24, 48, and 72 h, respectively. Formazan particles were solubilized with DMSO and absorbances were determined at 550 nm using a microplate reader (Bio-Rad, Hercules, CA, USA). The cytotoxic activity, expressed as IC50 values representing the complex solution required to inhibit 50% of the cell proliferation, were calculated from the calibration curve by nonlinear regression. Each experiment was carried out in triplicate.
Background: Tetrazolium dyes change colour on reduction, which living cells bring about.

For assay [6], the system named is Bacillus cerreus ATCC 14579. As to the kind of experiment: MIC, serial broth microdilution, B. cerreus. To be noted: 24 h, 37 °C. As for the experimental part:
as §1

Usually MIC stands for the lowest concentration found to suppress growth. A lower MIC goes with a more susceptible organism. One may read the IC50 as the point on the concentration scale where inhibition reaches its midpoint. Low readings indicate greater potency in that assay, high ones weaker potency in that assay. Regarding “[Cu(N-(5-(4-Methylphenyl)-[1,3,4]-Thiadiazole-2-yl) Naphtalenesulfonamidate)2(H2O)3] [C1]”, the MIC in assay [1] came out at 0.196 µg/mL; in assay [3] it was 0.231 µg/mL; in assay [4] it was 0.289 µg/mL; in assay [6], 0.304 µg/mL. In addition, the “Halo Zone Test (diameter of the inhibition zone)” value in assay [2] stood at 11 ± 0.25 mm. Besides, the IC50 in assay [5] (24 h) was determined as 44.7 ± 0.51 µM; in assay [5] (48 h) it was 7.38 ± 0.12 µM; in assay [5] (72 h), 3.75 ± 0.15 µM.

Consider “[Cu(N-(5-Ethyl--[1,3,4]-Thiadiazole-2-yl) Naphtalenesulfonamidate)2(py)2(H2O)] [C2]”, for which the MIC in assay [1] is 0.089 µg/mL; in assay [3] it was 0.184 µg/mL; in assay [4], 0.202 µg/mL; in assay [6], 0.293 µg/mL. For the same substance, in assay [2], the “Halo Zone Test (diameter of the inhibition zone)” value is on record as 12 ± 0.34 mm. Further, the IC50 is 18 ± 1.08 µM in assay [5] (24 h), 5.55 ± 0.22 µM in assay [5] (48 h) and 2.03 ± 0.04 µM in assay [5] (72 h).

(Values after article PMC9144936, “New Cu^+2 Complexes with N-Sulfonamide Ligands: Potential Antitumor, Antibacterial, and Antioxidant Agents” (Molecules, 2022).)
